# Where two headings read alike, the source gives them in different places.
# Tests used:
# mtOXPHOS transcripts = assay type: cell-based, mouse; conditions: for mitoOX (composite Z-score): normalized score vs mock-treated (DMSO) wells
# reactive oxygen species = assay type: cell-based, mouse; conditions: for ROS (composite Z-score): normalized score vs mock-treated (DMSO) wells
# nuOXPHOS transcripts = assay type: cell-based, mouse; conditions: for nucOX (composite Z-score): normalized score vs mock-treated (DMSO) wells
# [1] = tested on: mitochondrial membrane potential; assay type: cell-based, mouse; conditions: for ΔΨm (composite Z-score): normalized score vs mock-treated (DMSO) wells
# OXPHOS gene expression = assay type: cell-based, mouse; conditions: for GE-HTS (composite Z-score): normalized score vs mock-treated (DMSO) wells
# cytochrome c = assay type: cell-based, mouse; conditions: for cyt c (composite Z-score): normalized score vs mock-treated (DMSO) wells
# C2C12 myotubes = conditions: for Viability (composite Z-score): normalized score vs mock-treated (DMSO) wells
# [2] = tested on: cellular dehydrogenase activity; conditions: for MTT (composite Z-score): normalized score vs mock-treated (DMSO) wells
# [3] = normalized composite Z-score vs mock-treated (DMSO) wells, Conc 20 μM
# [4] = composite Z-score vs DMSO, Conc 20 μM
# [5] = composite Z-score vs DMSO wells, Conc 20 μM
# [6] = 20 μM, composite Z-score vs DMSO
# [7] = composite Z-score vs mock-treated (DMSO) wells, Conc 20 μM
smiles,measurement,setting,value
C[C@@H]1C(=O)O[C@H]2C[C@@]34[C@H]5C[C@@H](C(C)(C)C)[C@]36[C@@H](OC(=O)[C@@H]6O)O[C@@]4(C(=O)O5)[C@]21O [ginkgolide A],mitoOX,mtOXPHOS transcripts; [3],−0.123
same,ROS,reactive oxygen species; [3],1.848
same,nucOX,nuOXPHOS transcripts; [3],−0.286
same,ΔΨm,[1]; [3],−0.271
same,GE-HTS,OXPHOS gene expression; [3],−0.247
same,cyt c,cytochrome c; [3],0.541
same,Viability,C2C12 myotubes; [3],0.380
same,MTT,[2]; [3],−1.019
CO/N=C(\C(=O)N[C@@H]1C(=O)N2C(C(=O)O)=C(COC(N)=O)CS[C@H]12)c1ccco1 [cefuroxime],mitoOX,mtOXPHOS transcripts; [4],0.699
same,ROS,reactive oxygen species; [4],0.366
same,nucOX,nuOXPHOS transcripts; [4],0.790
same,ΔΨm,[1]; [4],−0.358
same,GE-HTS,OXPHOS gene expression; [4],0.816
same,cyt c,cytochrome c; [4],−0.495
same,Viability,C2C12 myotubes; [4],−0.846
same,MTT,[2]; [4],−0.536
CC1OC(OC2C(O)COC(OC3C(C)OC(OC4C(OC(=O)C56CCC(C)(C)CC5C5=CCC7C8(C)CCC(OC9OC(CO)C(O)C(O)C9O)C(C)(C)C8CCC7(C)C5(C)CC6O)OCC(O)C4O)C(O)C3O)C2O)C(O)C(O)C1O (centres unmarked) [chrysanthellin A],mitoOX,mtOXPHOS transcripts; [3],0.474
same,ROS,reactive oxygen species; [3],−1.565
same,nucOX,nuOXPHOS transcripts; [3],−0.394
same,ΔΨm,[1]; [3],−1.860
same,GE-HTS,OXPHOS gene expression; [3],−0.126
same,cyt c,cytochrome c; [3],−4.088
same,Viability,C2C12 myotubes; [3],−4.075
same,MTT,[2]; [3],−4.661
CC(C)CCC[C@@H](C)C1CC[C@H]2[C@@H]3CCC4CC(=O)CC[C@]4(C)[C@H]3CC[C@]12C (some centres unmarked) [cholestanone],mitoOX (composite Z-score),mtOXPHOS transcripts; Conc 20 μM,0.214
same,ROS (composite Z-score),reactive oxygen species; Conc 20 μM,1.864
same,nucOX (composite Z-score),nuOXPHOS transcripts; Conc 20 μM,0.147
same,ΔΨm (composite Z-score),[1]; Conc 20 μM,−1.065
same,GE-HTS (composite Z-score),OXPHOS gene expression; Conc 20 μM,0.165
same,cyt c (composite Z-score),cytochrome c; Conc 20 μM,0.272
same,Viability (composite Z-score),C2C12 myotubes; Conc 20 μM,−0.208
same,MTT (composite Z-score),[2]; Conc 20 μM,−2.192
NCCNC(=O)c1ccc(Cl)cc1 [N-(2-aminoethyl)-4-chlorobenzamide],mitoOX,mtOXPHOS transcripts; [5],−0.205
same,ROS,reactive oxygen species; [5],1.036
same,nucOX,nuOXPHOS transcripts; [5],0.175
same,ΔΨm,[1]; [5],−1.051
same,GE-HTS,OXPHOS gene expression; [5],0.065
same,cyt c,cytochrome c; [5],−0.423
same,Viability,C2C12 myotubes; [5],−1.090
same,MTT,[2]; [5],−0.669
CC1C(=NO)CC2CC1C2(C)C (centres unmarked) [3-pinanone oxime],mitoOX,mtOXPHOS transcripts; [3],0.386
same,ROS,reactive oxygen species; [3],−0.152
same,nucOX,nuOXPHOS transcripts; [3],0.031
same,ΔΨm,[1]; [3],−0.415
same,GE-HTS,OXPHOS gene expression; [3],0.141
same,cyt c,cytochrome c; [3],0.014
same,Viability,C2C12 myotubes; [3],−0.344
same,MTT,[2]; [3],−0.210
CCCN(CCC)C(=O)C(CCC(=O)O)NC(=O)c1ccccc1 (centres unmarked) [proglumide],mitoOX,mtOXPHOS transcripts; [6],−0.730
same,ROS,reactive oxygen species; [6],2.083
same,nucOX,nuOXPHOS transcripts; [6],−0.394
same,ΔΨm,[1]; [6],−0.910
same,GE-HTS,OXPHOS gene expression; [6],−0.541
same,cyt c,cytochrome c,−0.001
same,cyt c,cytochrome c; [6],−0.033
same,Viability,C2C12 myotubes; [6],−0.750
same,MTT,[2]; [6],−1.254
COC(=O)C[C@H]1C2(C)CC34OC5(C)O[C@@]6([C@H](OC)C(OC(=O)C(C)C)[C@]7(C)C(/C(=C(/OC)C(C)C)C(=O)O[C@H]7c7ccoc7)[C@@]6(O5)[C@H](OC)[C@@]3(OC)C2OC(C)=O)[C@]14C (some centres unmarked) [chukrasin methyl ether],mitoOX,mtOXPHOS transcripts; [7],0.198
same,ROS,reactive oxygen species; [7],0.777
same,nucOX,nuOXPHOS transcripts; [7],0.417
same,ΔΨm,[1]; [7],−1.084
same,GE-HTS,OXPHOS gene expression; [7],0.352
same,cyt c,cytochrome c; [7],−0.248
same,Viability,C2C12 myotubes; [7],−0.822
same,MTT,[2]; [7],−0.818
CC(C)CCC[C@@H](C)[C@H]1CC[C@H]2[C@@H]3CCC4CCCC[C@]4(C)[C@H]3CC[C@]12C (some centres unmarked) [cholestane],mitoOX,mtOXPHOS transcripts; [4],−0.640
same,ROS,reactive oxygen species; [4],0.155
same,nucOX,nuOXPHOS transcripts; [4],−0.651
same,ΔΨm,[1]; [4],−0.945
same,GE-HTS,OXPHOS gene expression; [4],−0.678
same,cyt c,cytochrome c; [4],0.043
same,Viability,C2C12 myotubes; [4],0.941
same,MTT,[2]; [4],−1.057
"C/C1=C\CC(C)(C)/C=C/CC2(C)OC2CC1 (centres unmarked) [epoxy (1,11)humulene]",mitoOX (composite Z-score),mtOXPHOS transcripts; Conc 20 μM,−1.021
same,ROS (composite Z-score),reactive oxygen species; Conc 20 μM,−0.355
same,nucOX (composite Z-score),nuOXPHOS transcripts; Conc 20 μM,−1.115
same,ΔΨm (composite Z-score),[1]; Conc 20 μM,−0.509
same,GE-HTS (composite Z-score),OXPHOS gene expression; Conc 20 μM,−1.172
same,cyt c (composite Z-score),cytochrome c; Conc 20 μM,0.979
same,Viability (composite Z-score),C2C12 myotubes; Conc 20 μM,1.157
same,MTT (composite Z-score),[2]; Conc 20 μM,−0.802
COc1cccc2c1CCC1=CC(=O)CCC12C (centres unmarked),mitoOX,mtOXPHOS transcripts; [7],−0.626
same,ROS,reactive oxygen species; [7],0.673
same,nucOX,nuOXPHOS transcripts; [7],−0.372
same,ΔΨm,[1]; [7],−0.506
same,GE-HTS,OXPHOS gene expression; [7],−0.465
same,cyt c,cytochrome c; [7],−0.293
same,Viability,C2C12 myotubes; [7],−0.577
same,MTT,[2]; [7],−1.530

# From patent US20090143279A1 (priority 2007, published 2009)
